Data reported in PubChem BioAssay AID248 (DTP/NCI, 2004).
Inconclusive results and toxic doses are left out. No stated cut-off is given here; in the data, active means T/C of 150% or more; inactive means T/C below 125%.

Tested on: L1210 leukemia ip in BDF1 mice, survival T/C
Assay: NCI In Vivo Anticancer Drug Screen. Data for tumor model L1210 Leukemia (intraperitoneal) in B6D2F1 (BDF1) mice
Conditions: endpoint: mean survival time, vehicle: saline, higher = longer survival
In short: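 Mice bearing the transplanted tumor received compound or vehicle. Survival of the treated group was divided by that of the vehicle-treated control group to give the ratio.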

Measured: T/C

CC(C)N=C(NC(C)C)N1CC1
inactive: dose: 10.0 mg/kg/injection, schedule: Q01DX009 (ip) 106 % of control | dose: 20.0 mg/kg/injection, schedule: Q01DX001 (ip) 104 % of control | dose: 20.0 mg/kg/injection, schedule: Q01DX009 (ip) 105 % of control | dose: 40.0 mg/kg/injection, schedule: Q01DX001 (ip) 104 % of control | dose: 40.0 mg/kg/injection, schedule: Q01DX009 (ip) 100 % of control
